Source: ChEMBL document CHEMBL1142989, “Synthesis and anti-cancer activity of C-ring-functionalized prodigiosin analogues” (2007)

Test: Growth inhibition in human NCI60 cells
Type: functional
Conditions: not given
`COC(=O)CCC(=O)C1=C(C)/C(=C/c2[nH]c(-c3ccc[nH]3)cc2OC)N=C1C` showed a GI50 of 0.794 µM and an LC50 of 12.3 µM.
With `COC(=O)CCCCC(=O)C1=C(C)/C(=C/c2[nH]c(-c3ccc[nH]3)cc2OC)N=C1C` the GI50 was 0.646 µM and the LC50 was 6.46 µM.
`CCc1c(-c2ccc[nH]2)[nH]c(/C=C2\N=C(C)C(C(=O)CCCCC(=O)OC)=C2C)c1C` showed a GI50 of 9.33 µM and an LC50 of 83.2 µM.
`COC(=O)CCCCCCCCC(=O)C1=C(C)/C(=C/c2[nH]c(-c3ccc[nH]3)cc2OC)N=C1C` gave a GI50 of 16.2 µM and an LC50 of 95.5 µM.
`COc1cc(-c2ccc[nH]2)[nH]c1/C=C1\N=C(C)C(C(C)=O)=C1C` [PRODIGIOSIN5] showed a GI50 of 0.708 µM and an LC50 of 89.1 µM.
With `CCOC(=O)C1=C(C)/C(=C/c2[nH]c(-c3ccc[nH]3)cc2OC)N=C1C` [PRODIGIOSIN 4] the GI50 was 0.0468 µM and the LC50 was 12.3 µM.
In the case of `CCCCCC1=C/C(=C/c2[nH]c(-c3ccc[nH]3)cc2OC)N=C1C` [PRODIGIOSIN CHLORIDE], the GI50 was 0.0141 µM.

Same assay, conditions: read-out: Log TGI (converted)
With `COC(=O)CCC(=O)C1=C(C)/C(=C/c2[nH]c(-c3ccc[nH]3)cc2OC)N=C1C` the TGI was 3.24 µM.
With `COC(=O)CCCCC(=O)C1=C(C)/C(=C/c2[nH]c(-c3ccc[nH]3)cc2OC)N=C1C` the TGI was 2.24 µM.
`CCc1c(-c2ccc[nH]2)[nH]c(/C=C2\N=C(C)C(C(=O)CCCCC(=O)OC)=C2C)c1C` showed a TGI of 33.9 µM.
With `COC(=O)CCCCCCCCC(=O)C1=C(C)/C(=C/c2[nH]c(-c3ccc[nH]3)cc2OC)N=C1C` the TGI was 67.6 µM.
In the case of `COc1cc(-c2ccc[nH]2)[nH]c1/C=C1\N=C(C)C(C(C)=O)=C1C` [PRODIGIOSIN5], the TGI was 40.7 µM.
With `CCOC(=O)C1=C(C)/C(=C/c2[nH]c(-c3ccc[nH]3)cc2OC)N=C1C` [PRODIGIOSIN 4] the TGI was 1.1 µM.
With `CCCCCC1=C/C(=C/c2[nH]c(-c3ccc[nH]3)cc2OC)N=C1C` [PRODIGIOSIN CHLORIDE] the TGI was 2.09 µM.
